Consider three compounds from patent US10935540B2, “GDF-15 as a haematological toxicity biomarker” (Novartis AG, priority 2015, dated 2021).

The subject of one data set is patients. The data set is described as follows: Clinical analysis of serum GDF-15 (ELISA) versus platelet counts in patients treated with Compound A. Type of data set: in vivo, human. The note with it: 21 patients, continuous three times weekly oral administration; preliminary analysis (FIG. 3). How it is done:
Patients were treated with (5)-1-(4-Chloro-phenyl)-7-isopropoxy-6-methoxy-2-(4-{methyl-[4-(4-methyl-3-oxo-piperazin-1-yl)-trans-cyclohexylmethyl]-amino}-phenyl)-1,4-dihydro-2H-isoquinolin-3-one (Compound A). Dose range was from 10 to 500 mg three times a week (3QW) with continuous or 2 week on 1 week off dosing regimen. Serum samples were collected from each subject at pre-dose and from 0.5 to 6 h post-dose on the first treatment day.
The serum level of GDF-15 expression was measured using enzyme-linked immunosorbent assay (ELISA; R&D Systems kit DGD150).
Clinical data (including platelet counts) were collected from all patients during the course of the treatment period.
Maximum observation period was 448 days on available platelet data.
A preliminary data analysis of (S)-1-(4-Chloro-phenyl)-7-isopropoxy-6-methoxy-2-(4-{methyl-[4-(4-methyl-3-oxo-piperazin-1-yl)-trans-cyclohexylmethyl]-amino}-phenyl)-1,4-dihydro-2H-isoquinolin-3-one effect on GDF-15 and platelet counts for 21 patients treated on a continuous three times weekly oral administration of (S)-1-(4-Chloro-phenyl)-7-isopropoxy-6-methoxy-2-(4-{methyl-[4-(4-methyl-3-oxo-piperazin-1-yl)-trans-cyclohexylmethyl]-amino}-phenyl)-1,4-dihydro-2H-isoquinolin-3-one was conducted. The conducted data analysis is represented in a plot on FIG. 3. In this plot, each point represents an individual patient. […]

Data set [1] deals with patients with liposarcomas. To be noted: cited from earlier work.
In a further data set the test system is thrombopoesis. The note with it: previous studies; cited from earlier work.
The next data set has as its system animal model. The note with it: cited from earlier work.
For data set [2], the system named is patients with solid tumors. The data set is described as follows: Maximum change of platelet and neutrophil count versus GDF-15 fold change in patients with solid tumors receiving compound of formula I. The data set is classed as in vivo, human. The note with it: regimen 1A (q3w) 12.5-350 mg or regimen 1B 120 mg. How it is done:
Maximum change of platelet count (FIG. 7) and neutrophil count (FIG. 8) and the GDF-15 values were determined for patients with solid tumors receiving compound of formula I, i.e. (S)-5-(5-Chloro-1-methyl-2-oxo-1,2-dihydro-pyridin-3-yl)-6-(4-chloro-phenyl)-2-(2,4-dimethoxy-pyrimidin-5-yl)-1-isopropyl-5,6-dihydro-1H-pyrrolo[3,4-d]imidazol-4-one, on the first day of a three week cycle (herein also referred to as regimen 1A or q3w) in doses of 12.5 mg (A), 25 mg (B), 50 mg (C), 100 mg (D), 200 mg (E), 250 mg (F), 350 mg(G) or on the first and eighth day of a 4 week cycle (herein also referred to as regimen 1B) in a dose of 120 mg (I). The left graphs show the maximum platelet count change vs. GDF-15 fold change, the GDF-15 being measured on day 1 of the first cycle (C1D1). The right graphs show the maximum platelet count change vs. GDF-15 fold change.
The platelet/neutrophil count was determined before receipt of first dose (baseline) and on day 1, 7 and 15 of the first and second cycle for regimen 1A (A-G) or on day 1, 8, 14, 22 of the first and second cycle for regimen 1B (I) and the maximum platelet change value in comparison to the baseline was selected. The “Change of platelet/neutrophile counts” value is calculated as post-baseline value minus baseline value and given in number of platelets/neutrophils per microliter of blood. […]

Take `COc1cc2c(cc1OC(C)C)[C@H](c1ccc(Cl)cc1)N(c1ccc(N(C)C[C@H]3CC[C@H](N4CCN(C)C(=O)C4)CC3)cc1)C(=O)C2` [Compound A, (S)-1-(4-Chloro-phenyl)-7-isopropoxy-6-methoxy-2-(4-{methyl-[4-(4-methyl-3-oxo-piperazin-1-yl)-trans-cyclohexylmethyl]-amino}-phenyl)-1,4-dihydro-2H-isoquinolin-3-one]: in the data set with patients, the “cycle 1 day 1 GDF-15 increase from baseline associated with a higher occurrence of platelet counts dropping below 150 G/L (grade 1 thrombocytopenia CTCAE V4)” value is given as “more than 25%”.
Regarding `CCOc1cc(C(C)(C)C)ccc1C1=N[C@@](C)(c2ccc(Cl)cc2)[C@@](C)(c2ccc(Cl)cc2)N1C(=O)N1CCN(CCCS(C)(=O)=O)CC1` [RG7112], in data set [1] (RG7112 administration), the major dose-limiting toxicity entry was “thrombocytopenia”. Also, the “patients with induced thrombocytopenia” value in data set [1] (single-agent RG-7112, patients with liposarcomas) is 40 % of patients. Further, the effect on thrombopoesis entry with thrombopoesis was “impairs thrombopoesis”. Moreover, the “time course of drug-induced thrombocytopenia” value with animal model was “occurred rather late during the treatment period and persisted after drug discontinuation”.
Turning to `COc1ncc(-c2nc3c(n2C(C)C)[C@H](c2ccc(Cl)cc2)N(c2cc(Cl)cn(C)c2=O)C3=O)c(OC)n1` [compound of formula I, (S)-5-(5-Chloro-1-methyl-2-oxo-1,2-dihydro-pyridin-3-yl)-6-(4-chloro-phenyl)-2-(2,4-dimethoxy-pyrimidin-5-yl)-1-isopropyl-5,6-dihydro-1H-pyrrolo[3,4-d]imidazol-4-one], the “correlation of GDF-15 increase with platelet count change” value in data set [2] (seen already for GDF-15 C1D1 24 h post-dose (FIG. 7)) was “correlates with a decrease”. Besides, the “correlation of GDF-15 increase with neutrophil count change” value in data set [2] (seen already for GDF-15 C1D1 24 h post-dose (FIG. 8)) is on record as “correlates with a decrease”.
